Assay results as given in article PMC10817512, “OSMAC-Based Discovery and Biosynthetic Gene Clusters Analysis of Secondary Metabolites from Marine-Derived Streptomyces globisporus SCSIO LCY30” (Marine Drugs, 2023).
≈ marks a conversion by molar mass, not a printed value. Like-named read-outs stand apart in the source and are kept apart here.

What was measured:
MRSA = assay: Antibacterial MIC, CLSI microdilution; type: cell-based, Staphylococcus aureus; conditions: Staphylococcus aureus, 37 °C, 16–18 h, read-out: MIC
Description: (§1) An antibacterial activity test of compounds 1–3 was conducted according to a standard protocol provided by the Clinical and Laboratory Standards Institute (CLSI). Sixteen bacterial strains were used, including Staphylococcus aureus ATCC 29213, Staphylococcus aureus 16339, Staphylococcus aureus 1862, Staphylococcus aureus 3090, Staphylococcus aureus 991, Staphylococcus aureus 669, Staphylococcus aureus 745324, Staphylococcus aureus 16162, Staphylococcus aureus (cfr) GDE4P037P, Enterococcus faecalis ATCC 29212, Enterococcus faecalis 36950, Micrococcus luteus ML01, MRSA, Bacillus subtilis BS01, Enterococcus gallinarum 5F52C, and Enterococcus faecium 36711. Compounds 1–3 were dissolved in DMSO at a concentration of 3.2 mg/mL, and vancomycin and ampicilin were used as antibacterial control agents. […] All the assays were carried out in triplicate.

[1] = tested on: human liver cell line LX-2; assay: Cell growth inhibitory (cytotoxic) activity assay; type: cell-based; conditions: LX-2 (human liver cell line)
Excerpt: (§2) The cell growth inhibitory activities of compounds 1–3 against fourteen different human cell lines (human liver cell line LX-2; hepatocellular cancer line HEPG2; human intestinal epithelial cell line NCM460; colorectal cancer cell lines HCT116 and SW480; normal human breast cell line MCF-10A; breast cancer cell line MCF7; triple-negative breast cancer cell lines MDA-MB-231, MDA-MB-468, and Bt-549; human umbilical vein endothelial cell line; lung cancer cell line A549; cervical cancer cell line Hela; and cholangiocarcinoma cell line RBE) were tested according to the previously published methods. SPSS software version 22.0 was used to test the IC50 values. Cisplatin and adriamycin were used as positive control agents, and all the experiments were carried out in triplicate.

[2] = tested on: human intestinal epithelial cell line NCM460; assay: Cell growth inhibitory (cytotoxic) activity assay; type: cell-based; conditions: Homo sapiens; NCM460 (normal intestinal epithelial cell line)
Excerpt: as §2

[3] = tested on: human umbilical vein endothelial cell line HUVEC; assay: Cell growth inhibitory (cytotoxic) activity assay; type: cell-based
Excerpt: as §2

[4] = tested on: normal human breast cell line MCF-10A; assay: Cell growth inhibitory (cytotoxic) activity assay; type: cell-based; conditions: MCF-10A (normal human breast cell line)
Excerpt: as §2

[5] = tested on: breast cancer cell line MCF7; assay: Cell growth inhibitory (cytotoxic) activity assay; type: cell-based, human; conditions: Homo sapiens
Excerpt: SPSS software version 22.0 was used to test the IC50 values.

[6] = tested on: TNBC cell lines MDA-MB-231, MDA-MB-468, and Bt-549; assay: Cytotoxicity, span over TNBC cell lines; type: cell-based; conditions: Homo sapiens; span over MDA-MB-231, MDA-MB-468 and Bt-549; read-out: IC50 values, range against TNBC cell lines
Excerpt: as §2

[7] = tested on: hepatocellular cancer line HEPG2; assay: Cell growth inhibitory (cytotoxic) activity assay; type: cell-based, human; conditions: Homo sapiens
Excerpt: as §2

[8] = tested on: cervical cancer cell line Hela; assay: Cell growth inhibitory (cytotoxic) activity assay; type: cell-based, human; conditions: Homo sapiens
Excerpt: as §2

[9] = tested on: triple-negative breast cancer cell line MDA-MB-468; assay: Cell growth inhibitory (cytotoxic) activity assay; type: cell-based, human; conditions: Homo sapiens; MDA-MB-468 (TNBC)
Excerpt: as §2

[10] = tested on: colorectal cancer cell line HCT116; assay: Cell growth inhibitory (cytotoxic) activity assay; type: cell-based, human; conditions: Homo sapiens, HCT-116
Excerpt: as §2

[11] = tested on: cholangiocarcinoma cell line RBE; assay: Cell growth inhibitory (cytotoxic) activity assay; type: cell-based, human; conditions: Homo sapiens
Excerpt: as §2

[12] = tested on: triple-negative breast cancer cell line MDA-MB-231; assay: Cell growth inhibitory (cytotoxic) activity assay; type: cell-based, human; conditions: Homo sapiens; MDA-MB-231 (TNBC)
Excerpt: as §2

[13] = tested on: triple-negative breast cancer cell line Bt-549; assay: Cell growth inhibitory (cytotoxic) activity assay; type: cell-based, human; conditions: Homo sapiens; Bt-549 (TNBC)
Excerpt: as §2

[14] = tested on: colorectal cancer cell line SW480; assay: Cell growth inhibitory (cytotoxic) activity assay; type: cell-based, human; conditions: for IC50: Homo sapiens, SW480 (colorectal cancer)
Excerpt: as §2

[15] = tested on: lung cancer cell line A549; assay: Cell growth inhibitory (cytotoxic) activity assay; type: cell-based, human; conditions: Homo sapiens
Excerpt: as §2

[16] = tested on: fourteen human cell lines; assay: Cytotoxicity, span over the whole cell panel; type: cell-based; conditions: span of the IC50 values over all fourteen cell lines, read-out: IC50 values, range against fourteen human cell lines
Excerpt: as §2

Bacillus subtilis BS01 = assay: Antibacterial MIC, CLSI microdilution; type: cell-based; conditions: Bacillus subtilis BS01; 37 °C, 16–18 h; read-out: MIC
Description: as §1

[17] = tested on: Staphylococcus aureus 745324; assay: Antibacterial MIC, CLSI microdilution; type: cell-based; conditions: Staphylococcus aureus 745324; 37 °C, 16–18 h; read-out: MIC
Description: as §1

[18] = tested on: Enterococcus faecalis ATCC 29212; assay: Antibacterial MIC, CLSI microdilution; type: cell-based; conditions: ATCC29212; Enterococcus faecalis ATCC 29212; 37 °C, 16–18 h; read-out: MIC
Description: as §1

Micrococcus luteus ML01 = assay: Antibacterial MIC, CLSI microdilution; type: cell-based; conditions: 37 °C, 16–18 h
Description: as §1

[19] = tested on: Enterococcus gallinarum 5F52C; assay: Antibacterial MIC, CLSI microdilution; type: cell-based; conditions: Enterococcus gallinarum 5F52C; 37 °C, 16–18 h; read-out: MIC
Description: as §1

[20] = tested on: Enterococcus faecium 36711; assay: Antibacterial MIC, CLSI microdilution; type: cell-based; conditions: Enterococcus faecium 36711; 37 °C, 16–18 h; read-out: MIC
Description: as §1

[21] = tested on: Staphylococcus aureus (cfr) GDE4P037P; assay: Antibacterial MIC, CLSI microdilution; type: cell-based; conditions: Staphylococcus aureus (cfr) GDE4P037P; 37 °C, 16–18 h; read-out: MIC
Description: as §1

[22] = tested on: Staphylococcus aureus 3090; assay: Antibacterial MIC, CLSI microdilution; type: cell-based; conditions: Staphylococcus aureus 3090; 37 °C, 16–18 h; read-out: MIC
Description: as §1

[23] = tested on: Staphylococcus aureus 991; assay: Antibacterial MIC, CLSI microdilution; type: cell-based; conditions: Staphylococcus aureus 991; 37 °C, 16–18 h; read-out: MIC
Description: as §1

[24] = tested on: Staphylococcus aureus 669; assay: Antibacterial MIC, CLSI microdilution; type: cell-based; conditions: Staphylococcus aureus 669; 37 °C, 16–18 h; read-out: MIC
Description: as §1

[25] = tested on: Staphylococcus aureus 16339; assay: Antibacterial MIC, CLSI microdilution; type: cell-based; conditions: Staphylococcus aureus 16339; 37 °C, 16–18 h; read-out: MIC
Description: as §1

[26] = tested on: Staphylococcus aureus 1862; assay: Antibacterial MIC, CLSI microdilution; type: cell-based; conditions: Staphylococcus aureus 1862; 37 °C, 16–18 h; read-out: MIC
Description: as §1

[27] = tested on: Staphylococcus aureus ATCC 29213; assay: Antibacterial MIC, CLSI microdilution; type: cell-based; conditions: ATCC29213; Staphylococcus aureus ATCC 29213; 37 °C, 16–18 h; read-out: MIC
Description: as §1

[28] = tested on: Enterococcus faecalis 36950; assay: Antibacterial MIC, CLSI microdilution; type: cell-based; conditions: Enterococcus faecalis 36950; 37 °C, 16–18 h; read-out: MIC
Description: as §1

[29] = tested on: Staphylococcus aureus 16162; assay: Antibacterial MIC, CLSI microdilution; type: cell-based; conditions: Staphylococcus aureus 16162; 37 °C, 16–18 h; read-out: MIC
Description: as §1

[30] = tested on: Staphylococcus simulans AKA1; assay: Antibacterial MIC, CLSI microdilution; type: cell-based; conditions: Staphylococcus simulans AKA1; 37 °C, 16–18 h; read-out: MIC
[31] = tested on: methicillin-resistant Staphylococcus aureus; design: method as in PMID 27097765; conditions: ref [24]; cited from earlier work
Staphylococcus lentus = tested on: Staphylococcus lentus; design: method as in PMID 18396903; conditions: ref [35]; cited from earlier work
Bacillus subtilis = tested on: Bacillus subtilis; design: method as in PMID 18396903; conditions: ref [35]; cited from earlier work
[32] = Micrococcus luteus, ML01, Micrococcus luteus ML01, read-out: MIC

| Molecule | MIC (MRSA) [µg/mL] | IC50 [1] [µM] | IC50 [2] [µM] | IC50 [3] [µM] | IC50 [4] [µM] | IC50 [5] [µM] | IC50 [6] [µM] | IC50 [7] [µM] | IC50 [8] [µM] | IC50 [9] [µM] | IC50 [10] [µM] | IC50 [11] [µM] | IC50 [12] [µM] | IC50 [13] [µM] | IC50 [14] [µM] | IC50 [15] [µM] | IC50 [16] [µM] | MIC (Bacillus subtilis BS01) [µg/mL] | MIC [17] [µg/mL] | MIC [18] [µg/mL] | also measured |
| --- | --- | --- | --- | --- | --- | --- | --- | --- | --- | --- | --- | --- | --- | --- | --- | --- | --- | --- | --- | --- | --- |
| Cc1cc(O)c2c3c(c(O)c(C4CC(N)C(O)C(C)O4)c2c1)C(=O)c1c(O)cccc1C3=O (stereo not drawn) [Mayamycin B (2), mayamycin B] | 8 (≈ 17.8 µM) | 5.33 | 7.16 | 4.41 | 5.21 | 4.15 | 3.01 to 6.08 | 6 | 2.8 | 6.08 | 2.05 | 4.06 | 3.01 | 3.87 | 2.87 | 5.08 | 2.05 to 7.16 | 8 (≈ 17.8 µM) | 8 (≈ 17.8 µM) | 16 (≈ 35.6 µM) | MIC (Micrococcus luteus ML01; Micrococcus luteus ML01): 1 µg/mL (≈ 2.22 µM); MIC (Micrococcus luteus ML01; [32]): 1 to 2 µg/mL (≈ 2.22 to 4.45 µM); MIC [19]: 32 µg/mL (≈ 71.2 µM); MIC [20]: 32 µg/mL (≈ 71.2 µM); MIC [21]: 8 µg/mL (≈ 17.8 µM); MIC [22]: 8 µg/mL (≈ 17.8 µM); MIC [23]: 16 µg/mL (≈ 35.6 µM); MIC [24]: 16 µg/mL (≈ 35.6 µM); MIC [25]: 16 µg/mL (≈ 35.6 µM); MIC [26]: 16 µg/mL (≈ 35.6 µM); MIC [27]: 16 µg/mL (≈ 35.6 µM); MIC [28]: 8 µg/mL (≈ 17.8 µM); MIC [29]: 16 µg/mL (≈ 35.6 µM); MIC [30]: 64 µg/mL (≈ 142 µM) |
| C[C@]1(O)CC(=O)c2c(cc(O)c3c2C(=O)c2cccc(O)c2C3=O)C1 [Rabelomycin (3), rabelomycin] | 8 (≈ 23.6 µM) | 13.4 | 7.05 | 10.9 | 11.3 | 4.48 | 2.18 to 8.67 | 8.64 | 16.1 | 2.18 | 4.72 | 4.23 | 8.67 | 7.85 | 1.57 | 5.97 | 1.57 to 16.1 | 4 (≈ 11.8 µM) | 8 (≈ 23.6 µM) | 8 (≈ 23.6 µM) | selective index (SI) ([14]; SW480 versus normal intestinal epithelial cell line NCM460): 4.49; MIC (Micrococcus luteus ML01; Micrococcus luteus ML01): 2 µg/mL (≈ 5.91 µM); MIC (Micrococcus luteus ML01; [32]): 1 to 2 µg/mL (≈ 2.96 to 5.91 µM); MIC [19]: 32 µg/mL (≈ 94.6 µM); MIC [20]: 32 µg/mL (≈ 94.6 µM); MIC [21]: 4 µg/mL (≈ 11.8 µM); MIC [22]: 8 µg/mL (≈ 23.6 µM); MIC [23]: 16 µg/mL (≈ 47.3 µM); MIC [24]: 16 µg/mL (≈ 47.3 µM); MIC [25]: 8 µg/mL (≈ 23.6 µM); MIC [26]: 8 µg/mL (≈ 23.6 µM); MIC [27]: 8 µg/mL (≈ 23.6 µM); MIC [28]: 8 µg/mL (≈ 23.6 µM); MIC [29]: 8 µg/mL (≈ 23.6 µM); MIC [30]: 16 µg/mL (≈ 47.3 µM) |
| (-)-Streptophenazine B | – | – | – | – | – | – | – | – | – | – | – | – | – | – | – | – | – | – | – | – | MIC [31]: 4.2 µg/mL |
| streptophenazine C | – | – | – | – | – | – | – | – | – | – | – | – | – | – | – | – | – | – | – | – | MIC (Staphylococcus lentus): 46.9 µg/mL; MIC (Bacillus subtilis): 15.6 µg/mL |
